Data taken from patent US20210317134A1, “UBIQUITIN-SPECIFIC-PROCESSING PROTEASE 7 (USP7) MODULATORS AND USES THEREOF” (RAPT THERAPEUTICS, INC., priority 2019, published 2021).

What follows are compounds tested against USP7 (Homo sapiens, UniProt Q93009) (assay: USP7 inhibitory potency (Table 1)).
Format: biochemical

USP7, sequence (Q93009 whole entry): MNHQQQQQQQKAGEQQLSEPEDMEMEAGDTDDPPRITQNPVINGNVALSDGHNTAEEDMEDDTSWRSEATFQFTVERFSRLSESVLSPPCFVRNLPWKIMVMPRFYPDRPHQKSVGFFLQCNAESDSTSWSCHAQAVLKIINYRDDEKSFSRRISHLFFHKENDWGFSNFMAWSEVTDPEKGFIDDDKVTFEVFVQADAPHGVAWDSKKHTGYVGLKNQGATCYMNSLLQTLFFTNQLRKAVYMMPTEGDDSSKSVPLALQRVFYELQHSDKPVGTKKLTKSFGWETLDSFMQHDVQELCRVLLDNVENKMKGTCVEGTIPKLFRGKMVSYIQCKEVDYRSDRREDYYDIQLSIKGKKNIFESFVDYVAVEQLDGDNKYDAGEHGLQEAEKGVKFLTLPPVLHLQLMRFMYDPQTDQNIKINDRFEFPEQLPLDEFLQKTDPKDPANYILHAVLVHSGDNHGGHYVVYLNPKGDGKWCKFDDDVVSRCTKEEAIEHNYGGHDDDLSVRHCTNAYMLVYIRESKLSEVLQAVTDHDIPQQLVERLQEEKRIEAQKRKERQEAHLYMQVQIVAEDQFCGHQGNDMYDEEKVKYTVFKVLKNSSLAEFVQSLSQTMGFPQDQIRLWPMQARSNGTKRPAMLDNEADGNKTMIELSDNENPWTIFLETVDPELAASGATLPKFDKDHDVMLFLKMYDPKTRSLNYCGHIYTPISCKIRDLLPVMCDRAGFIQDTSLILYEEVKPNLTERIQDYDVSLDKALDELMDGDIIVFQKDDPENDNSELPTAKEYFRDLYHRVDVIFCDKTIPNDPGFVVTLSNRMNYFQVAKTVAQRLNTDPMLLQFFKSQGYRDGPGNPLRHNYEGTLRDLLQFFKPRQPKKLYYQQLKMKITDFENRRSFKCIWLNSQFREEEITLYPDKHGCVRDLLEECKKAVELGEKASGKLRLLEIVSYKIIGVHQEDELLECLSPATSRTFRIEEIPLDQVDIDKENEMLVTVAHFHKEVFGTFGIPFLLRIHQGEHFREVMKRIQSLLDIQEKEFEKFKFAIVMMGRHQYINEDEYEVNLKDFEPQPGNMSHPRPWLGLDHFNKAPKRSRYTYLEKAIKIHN

| IC50 [nM] | Structure (SMILES) |
| --- | --- |
| < 1000 | O=C([C@H]1Cc2cc(Cl)cc(-c3ccnc4cc(C5(O)COC5)sc34)c2O1)N1CCNCC1 [(R)-(5-chloro-7-(2-(3-hydroxyoxetan-3-yl)thieno[3,2-b]pyridin-7-yl)-2,3-dihydrobenzofuran-2-yl)(piperazin-1-yl)methanone] |
| < 1000 | O=C([C@H]1Cc2cc(Cl)cc(-c3ccnc4cc(CCNS(=O)(=O)c5ccccc5)sc34)c2O1)N1CCNCC1 [(R)-N-(2-(7-(5-chloro-2-(piperazine-1-carbonyl)-2,3-dihydrobenzofuran-7-yl)thieno[3,2-b]pyridin-2-yl)ethyl)benzenesulfonamide] |
| < 1000 | CC(NCc1cc2nccc(-c3cc(Cl)cc4c3O[C@@H](c3onc5c3CNCC5)C4)c2s1)C(F)(F)F (stereo partly drawn) [N-((7-((R)-5-chloro-2-(4,5,6,7-tetrahydroisoxazolo[4,3-c]pyridin-3-yl)-2,3-dihydrobenzofuran-7-yl)thieno[3,2-b]pyridin-2-yl)methyl)-1,1,1-trifluoropropan-2-amine] |
| < 1000 | O[C@]1(c2cc3nccc(-c4cc(Cl)cc5c4O[C@@H](c4onc6c4CNCC6)C5)c3s2)CCOC1 [(R)-3-(7-((R)-5-chloro-2-(4,5,6,7-tetrahydroisoxazolo[4,3-c]pyridin-3-yl)-2,3-dihydrobenzofuran-7-yl)thieno[3,2-b]pyridin-2-yl)tetrahydrofuran-3-ol] |
| < 1000 | CNC1CCN(C(=O)[C@H]2Cc3cc(Cl)cc(-c4ccnc5cc(CO)sc45)c3O2)CC1 [(R)-(5-chloro-7-(2-(hydroxymethyl)thieno[3,2-b]pyridin-7-yl)-2,3-dihydrobenzofuran-2-yl)(4-(methylamino)piperidin-1-yl)methanone] |
| 1000 to 10000 | Cc1nnc2n1CCN(C(=O)[C@H]1Cc3cc(Cl)cc(-c4ccnc5cc(CO)sc45)c3O1)C2 [(R)-(5-chloro-7-(2-(hydroxymethyl)thieno[3,2-b]pyridin-7-yl)-2,3-dihydrobenzofuran-2-yl)(3-methyl-5,6-dihydro-[1,2,4]triazolo[4,3-a]pyrazin-7(8H)-yl)methanone] |
| < 1000 | Cn1ccc(=O)n(Cc2cc3nccc(-c4cc(Cl)cc5c4O[C@@H](C(=O)N4CCNCC4)C5)c3s2)c1=O [(R)-3-((7-(5-chloro-2-(piperazine-1-carbonyl)-2,3-dihydrobenzofuran-7-yl)thieno[3,2-b]pyridin-2-yl)methyl)-1-methylpyrimidine-2,4(1H,3H)-dione] |
| < 1000 | CNC(=O)CCc1cc2nccc(-c3cc(Cl)cc4c3O[C@@H](C(=O)N3CCNCC3)C4)c2s1 [(R)-3-(7-(5-chloro-2-(piperazine-1-carbonyl)-2,3-dihydrobenzofuran-7-yl)thieno[3,2-b]pyridin-2-yl)-N-methylpropanamide] |
| 10000 to 30000 | Cc1cc(-c2cc(Cl)cc3c2O[C@@H](c2onc4c2CNCC4)C3)c2ccc(C#N)cc2n1 [(R)-4-(5-chloro-2-(4,5,6,7-tetrahydroisoxazolo[4,3-c]pyridin-3-yl)-2,3-dihydrobenzofuran-7-yl)-2-methylquinoline-7-carbonitrile] |

Further lines, the compound ahead of its results:

| Structure (SMILES) | IC50 [nM] |
| --- | --- |
| CN1CCC(CN2CCN(C(=O)C3Cc4cc(Cl)cc(-c5ccnc6[nH]ccc56)c4O3)CC2)CC1 (stereo not drawn) [(5-chloro-7-(1H-pyrrolo[2,3-b]pyridin-4-yl)-2,3-dihydrobenzofuran-2-yl)(4-((1-methylpiperidin-4-yl)methyl)piperazin-1-yl)methanone] | 1000 to 10000 |
| Cc1cnccc1-c1cc(Cl)cc2c1OC(C(=O)N1CCNCC1)C2 (stereo not drawn) | 10000 to 30000 |
| Fc1ccc2nccc(-c3cc(Cl)cc4c3O[C@@H](c3onc5c3CNCC5)C4)c2c1 [(R)-3-(5-chloro-7-(6-fluoroquinolin-4-yl)-2,3-dihydrobenzofuran-2-yl)-4,5,6,7-tetrahydroisoxazolo[4,3-c]pyridine] | < 1000 |
| CCC(O)(CO)c1cc2nccc(-c3cc(Cl)cc4c3O[C@@H](C(=O)N3CCNCC3)C4)c2s1 (stereo partly drawn) [((2R)-5-chloro-7-(2-(1,2-dihydroxybutan-2-yl)thieno[3,2-b]pyridin-7-yl)-2,3-dihydrobenzofuran-2-yl)(piperazin-1-yl)methanone] | < 1000 |
| O=C(N[C@@H]1CCCNC1)C1Cc2cc(Cl)cc(-c3ccnc4[nH]ccc34)c2O1 (stereo partly drawn) [5-Chloro-N-((R)-piperidin-3-yl)-7-(1H-pyrrolo[2,3-b]pyridin-4-yl)-2,3-dihydrobenzofuran-2-carboxamide] | 1000 to 10000 |
| O=C([C@H]1Cc2cc(Cl)cc(-c3ccnc4cc(CN5C(=O)CCC5=O)ccc34)c2O1)N1CCNCC1 [(R)-1-((4-(5-chloro-2-(piperazine-1-carbonyl)-2,3-dihydrobenzofuran-7-yl)quinolin-7-yl)methyl)pyrrolidine-2,5-dione] | < 1000 |
| NS(=O)(=O)CCc1cc2nccc(-c3cc(Cl)cc4c3O[C@@H](C(=O)N3CCNCC3)C4)c2s1 [(R)-2-(7-(5-chloro-2-(piperazine-1-carbonyl)-2,3-dihydrobenzofuran-7-yl)thieno[3,2-b]pyridin-2-yl)ethane-1-sulfonamide] | < 1000 |
| CCC(O)c1cc2nccc(-c3cc(Cl)cc4c3O[C@@H](c3ocnc3CN3CCOCC3)C4)c2s1 (stereo partly drawn) [1-(7-((R)-5-chloro-2-(4-(morpholinomethyl)oxazol-5-yl)-2,3-dihydrobenzofuran-7-yl)thieno[3,2-b]pyridin-2-yl)propan-1-ol] | 1000 to 10000 |
| O=C(C1Cc2cc(Cl)cc(-c3ccnc4cc(CO)ccc34)c2O1)N1CCNCC1 (stereo not drawn) [(5-chloro-7-(7-(hydroxymethyl)quinolin-4-yl)-2,3-dihydrobenzofuran-2-yl)(piperazin-1-yl)methanone] | 1000 to 10000 |
| CCC(O)c1cc2nccc(-c3cc(Cl)cc4c3O[C@@H](C(=O)N3CCC(c5cnc[nH]5)CC3)C4)c2s1 (stereo partly drawn) [(4-(1H-imidazol-5-yl)piperidin-1-yl)((2R)-5-chloro-7-(2-(1-hydroxypropyl)thieno[3,2-b]pyridin-7-yl)-2,3-dihydrobenzofuran-2-yl)methanone] | 1000 to 10000 |
| C[C@H]1CNCCN1C(=O)C1Cc2cc(Cl)cc(-c3ccnc4[nH]ccc34)c2O1 (stereo partly drawn) [(5-chloro-7-(1H-pyrrolo[2,3-b]pyridin-4-yl)-2,3-dihydrobenzofuran-2-yl)((S)-2-methylpiperazin-1-yl)methanone] | 1000 to 10000 |
| CCC(O)c1cc2ncnc(-c3cc(Cl)cc4c3O[C@@H](c3c5c(nn3C)CCC(N(C)C)C5)C4)c2s1 (stereo partly drawn) [1-(4-((2R)-5-chloro-2-(5-(dimethylamino)-2-methyl-4,5,6,7-tetrahydro-2H-indazol-3-yl)-2,3-dihydrobenzofuran-7-yl)thieno[3,2-d]pyrimidin-6-yl)propan-1-ol] | 1000 to 10000 |
| Fc1cccc2c(-c3cc(Cl)cc4c3O[C@@H](c3onc5c3CNCC5)C4)ccnc12 [(R)-3-(5-chloro-7-(8-fluoroquinolin-4-yl)-2,3-dihydrobenzofuran-2-yl)-4,5,6,7-tetrahydroisoxazolo[4,3-c]pyridine] | 1000 to 10000 |
| O=C(Nc1ccc(F)cc1)c1cc2c(-c3cc(Cl)cc4c3OC(C(=O)N3CCNCC3)C4)ccnc2[nH]1 (stereo not drawn) [4-(5-chloro-2-(piperazine-1-carbonyl)-2,3-dihydrobenzofuran-7-yl)-N-(4-fluorophenyl)-1H-pyrrolo[2,3-b]pyridine-2-carboxamide] | 1000 to 10000 |
| CN1CCC(N2CCN(C(=O)C3Cc4cc(Cl)cc(-c5ccnc6[nH]ccc56)c4O3)CC2)CC1 (stereo not drawn) [(5-chloro-7-(1H-pyrrolo[2,3-b]pyridin-4-yl)-2,3-dihydrobenzofuran-2-yl)(4-(1-methylpiperidin-4-yl)piperazin-1-yl)methanone] | 10000 to 30000 |
